Source: ChEMBL document CHEMBL2169873, “Binding sites of retinol and retinoic acid with serum albumins” (Eur J Med Chem, 2012)

Legend:
Type in all cases: ADME
Albumin [1] = target: T1, Albumin (Bos taurus, UniProt P02769); assay: Binding affinity to bovine serum albumin turn at 0.5 mM by circular dichroism analysis; details: cattle, isolated protein, 500 µM
Albumin [2] = target: T1, Albumin; assay: Binding affinity to bovine serum albumin beta-sheet (1640 to 1610 cm'-1) at 0.5 mM after 2 hrs by FTIR spectroscopic analysis; details: cattle, isolated protein, 500 µM
Albumin [3] = target: T1, Albumin; assay: Binding affinity to bovine serum albumin random coil (1648 to 1641 cm'-1) at 0.5 mM after 2 hrs by FTIR spectroscopic analysis; details: cattle, isolated protein, 500 µM
Albumin [4] = target: T1, Albumin; assay: Binding affinity to bovine serum albumin alpha-helix (1660 to 1650 cm'-1) at 0.5 mM after 2 hrs by FTIR spectroscopic analysis; details: cattle, isolated protein, 500 µM
Albumin [5] = target: T1, Albumin; assay: Binding affinity to bovine serum albumin at 0.125 mM after 2 hrs by FTIR spectroscopic analysis; details: cattle, isolated protein, 125 µM
Albumin [6] = target: T1, Albumin; assay: Binding affinity to bovine serum albumin by fluorescence quenching assay; details: cattle, isolated protein
Albumin [7] = target: T1, Albumin; assay: Binding affinity to bovine serum albumin by fluorescence spectroscopy analysis; details: cattle, isolated protein
Albumin [8] = target: T1, Albumin; assay: Binding affinity to bovine serum albumin beta-sheet at 0.5 mM by circular dichroism analysis; details: cattle, isolated protein, 500 µM
Albumin [9] = target: T1, Albumin; assay: Binding affinity to bovine serum albumin turn (1680 to 1660 cm'-1) at 0.5 mM after 2 hrs by FTIR spectroscopic analysis; details: cattle, isolated protein, 500 µM
Albumin [10] = target: T1, Albumin; assay: Binding affinity to bovine serum albumin alpha-helix at 0.5 mM by circular dichroism analysis; details: cattle, isolated protein, 500 µM
Albumin [11] = target: T1, Albumin; assay: Binding affinity to bovine serum albumin random coil at 0.5 mM by circular dichroism analysis; details: cattle, isolated protein, 500 µM
Albumin [12] = target: T1, Albumin; assay: Binding affinity to bovine serum albumin beta-antiparallel (1692 to 1680 cm'-1) at 0.5 mM after 2 hrs by FTIR spectroscopic analysis; details: cattle, isolated protein, 500 µM
Albumin [13] = target: T1, Albumin; assay: Binding affinity to bovine serum albumin beta-antiparallel (1692 to 1680 cm'-1) at 0.1 mM after 2 hrs by FTIR spectroscopic analysis; details: cattle, isolated protein, 100 µM
Albumin [14] = target: T1, Albumin; assay: Binding affinity to bovine serum albumin random coil (1648 to 1641 cm'-1) at 0.1 mM after 2 hrs by FTIR spectroscopic analysis; details: cattle, isolated protein, 100 µM
Albumin [15] = target: T1, Albumin; assay: Binding affinity to bovine serum albumin beta-sheet (1640 to 1610 cm'-1) at 0.1 mM after 2 hrs by FTIR spectroscopic analysis; details: cattle, isolated protein, 100 µM
Albumin [16] = target: T1, Albumin; assay: Binding affinity to bovine serum albumin alpha-helix (1660 to 1650 cm'-1) at 0.1 mM after 2 hrs by FTIR spectroscopic analysis; details: cattle, isolated protein, 100 µM
Albumin [17] = target: T1, Albumin; assay: Binding affinity to bovine serum albumin turn (1680 to 1660 cm'-1) at 0.1 mM after 2 hrs by FTIR spectroscopic analysis; details: cattle, isolated protein, 100 µM

T1 sequence (P02769 whole entry): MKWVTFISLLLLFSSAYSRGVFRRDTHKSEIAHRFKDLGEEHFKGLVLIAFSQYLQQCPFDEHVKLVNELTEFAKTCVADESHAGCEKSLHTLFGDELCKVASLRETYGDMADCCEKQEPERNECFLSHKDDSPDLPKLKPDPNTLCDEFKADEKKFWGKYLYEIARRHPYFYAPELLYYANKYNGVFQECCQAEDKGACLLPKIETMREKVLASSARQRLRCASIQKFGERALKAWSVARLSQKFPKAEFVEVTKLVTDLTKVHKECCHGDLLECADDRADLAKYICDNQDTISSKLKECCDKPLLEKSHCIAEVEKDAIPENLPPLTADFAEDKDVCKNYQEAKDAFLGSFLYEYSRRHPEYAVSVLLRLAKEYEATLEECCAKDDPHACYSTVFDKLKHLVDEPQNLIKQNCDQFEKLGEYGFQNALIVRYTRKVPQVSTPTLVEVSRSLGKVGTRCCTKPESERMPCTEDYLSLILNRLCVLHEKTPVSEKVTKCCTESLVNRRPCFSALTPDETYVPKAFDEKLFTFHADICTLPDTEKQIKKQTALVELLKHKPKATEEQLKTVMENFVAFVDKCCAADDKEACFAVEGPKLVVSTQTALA

Activity (Albumin [1]) [%] | Activity (Albumin [2]) [%] | Activity (Albumin [3]) [%] | Activity (Albumin [4]) [%] | Activity (Albumin [5]) | Kq (Albumin [6]) [×10¹³ /M/sec] | K (Albumin [7]) [×10⁶ /M] | Activity (Albumin [8]) [%] | Activity (Albumin [9]) [%] | Activity (Albumin [10]) [%] | Activity (Albumin [11]) [%] | Activity (Albumin [12]) [%] | Activity (Albumin [13]) [%] | Activity (Albumin [14]) [%] | Activity (Albumin [15]) [%] | Activity (Albumin [16]) [%] | Activity (Albumin [17]) [%] | Compound
14 | 19 | 20 | 36 | Active | 4.5 | 5.3 | 16 | 15 | 52 | 18 | 10 |  |  |  |  |  | CC1=C(/C=C/C(C)=C/C=C/C(C)=C/CO)C(C)(C)CCC1 [RETINOL]
18 |  |  |  | Active | 2.5 | 2.3 | 18 |  | 44 | 20 |  | 7 | 25 | 15 | 26 | 27 | CC1=C(/C=C/C(C)=C/C=C/C(C)=C/C(=O)O)C(C)(C)CCC1 [TRETINOIN]
